Data published in patent US5696239A (The Dow Chemical Company, priority 1995, dated 1997).

Tests used:
[1] = In vivo biodistribution of chelates in rats (% dose in organs); settings: Sm complex, rat, 2 hours after i.v. injection
[2] = complexes with Sc-46, Y-91, La-140 and Sm-153; chelant to metal 5:1; cited from earlier work
[3] = Complex study: percent yttrium complex after addition of excess metal (lability); assay type: physicochemical
Experimental: (§1) A disposable 10 ml plastic (Biorad) column was filled with 1 to 2 ml of water-swelled Sephadex™ C-25 cation exchange resin. The water was pressure eluted to the top of the resin. Fifteen μl of the complex (or more if counts were low) were added to the top of the resin. This was followed by 2 ml of 4:1 (V:V) isotonic saline:conc. ammonium hydroxide solution as an eluent which was allowed to drip into a counting tube. This was also pressure eluted to the top of the resin. An additional 2 ml of the eluent were added and the column pressure eluted to remove all liquid. The dried resin was then placed in a third counting tube and the three tubes counted on a NaI well counter using a Canberra multichannel analyzer linked to a computer. The percent complex was determined by dividing the number of counts in the two elutions by the total counts in the elutions plus the column, all times 100. By this method, uncomplexed yttrium was retained on the column.
The 1:1 complex of yttrium with 1-(p-aminobenzyl)diethylenetriaminepentaacetic acid (ABDTPA), a well known bifunctional chelant used in the literature, and with the ligand of Example 2 (Now Ex. XVI) and Example 12 (now Ex. XVII) were prepared using the techniques described earlier. Several 100 microliter aliquots were then withdrawn into separate centrifuge tubes. Excess metal was added such that the total volume change is minimized and the time noted. One-half hour after metal addition, the percent complex was determined by the Sephadex™ C-25 method and this was compared to the original amount of complex. The percent complex versus added metal gives an indication as to the lability of the ligand-metal complex. Results are given below and are compared to the EDTA-yttrium complex.

[4] = Challenge of antibody-complex conjugates with excess DTPA (inertness); assay type: physicochemical; settings: 1000 fold molar excess DTPA, pH 7.4, one hour; CC-46 conjugate of Y-90 complex
Experimental: The purified antibody-complexes were added to HEPES buffer (N-2-hydroxyethylpiperazine-N'-2-ethanesulfonic acid) at pH 7.4 and treated with an appropriate amount of 0.1M DTPA solution (pH 7.4) to ensure a 1000 fold molar excess of DTPA over complex attached to antibody. After one hour an aliquot was removed and the antibody-complex conjugates were separated from low molecular weight substances using gel-filtration.

[5] = Percent complex determination, yttrium complexes (Sephadex C-25 cation exchange); assay type: physicochemical
Experimental: Complexes were made by preparing a 0.0003M yttrium solution in water. (YCl3.6H2 O, 303.26 g/mole; Y(OAc)3, 12.1% H2 O). Radioactive YCl3 (Oakridge National Laboratories) was added to give the desired number of counts. Ten μl of ligand solution (at 0.03M) were added to 990 μl of the Y solution, giving a ligand-to-metal ratio of 1:1. (Ten times the amount of ligand solution was used for a 10:1 ligand to metal ratio.) The pH was then adjusted to 7.4 using microliter quantities of hydrochloric acid or sodium hydroxide. The solution was then tested for the amount of complexed yttrium using the cation exchange method given below.
as §1

[6] = Percent complex determination, samarium complexes (Sephadex C-25 cation exchange); assay type: physicochemical; settings: samarium
Experimental: as §1, with “100.” for “100. By this method, uncomplexed yttrium was retained on the column.”
Percent complex determination was made in the same manner as for the yttrium complex.

[7] = ligand/metal about 300:1 (Examples D and E)
[8] = metal/ligand molar ratio 250, one-half hour after metal addition
[9] = metal/ligand molar ratio 500, one-half hour after metal addition
[10] = ligand/metal ratio about 1:1 (* footnote)

O=C(O)CN(CC(=O)O)CC(=O)O [NTA, nitrilotri-acetic acid, reference compound]
% Injected Dose in Liver [1, 7]: 8.6%
organ distribution of radioactivity [2]: high concentrations of radioactivity were observed in the liver, spleen, kidney, lung and bone

O=C(O)CN(CCN(CC(=O)O)CC(=O)O)CC(=O)O [EDTA, ethylenediaminetetraacetic acid]
% Injected Dose in Liver ([1]; ligand/metal 5:1): 8.4%
% Injected Dose in Liver [1, 7]: 4.4%
% Complex [3, 8]: 48%
% Complex [3, 9]: 16%
organ distribution of radioactivity [2]: high concentrations of radioactivity were observed in the liver, spleen, kidney, lung and bone

Nc1cc(CN(CCN(CC(=O)O)CC(=O)O)CC(=O)O)c(O)c(CN(CCN(CC(=O)O)CC(=O)O)CC(=O)O)c1 [Example 12]
yttrium lost from antibody-complex conjugate [4]: approximately 39%
% Complex (10:1), Y ([5]; ligand/metal 10:1, pH 7.4): 99%
% Complex, Y [5, 10]: 98%
% Complex (10:1), Sm ([6]; ligand/metal 10:1): 98%
% Complex, Sm [6, 10]: 98%
% Complex [3, 8]: 90%
% Complex [3, 9]: 79%

Nc1ccc(CC(CN(CCN(CC(=O)O)CC(=O)O)CC(=O)O)N(CC(=O)O)CC(=O)O)cc1 (stereo not drawn) [ABDTPA, 1-(p-aminobenzyl)diethylenetriaminepentaacetic acid]
yttrium lost from antibody-complex conjugate [4]: over 98%
% Complex ([3]; metal/ligand molar ratio 10, one-half hour after metal addition): 95%
% Complex [3, 8]: 87%
% Complex [3, 9]: 70%
